Key:
[1] = tested on: eyelashes; experiment: Short-term in vivo evaluation related to eyelash growth (one week administration); parameters: species or system mouse
Description: (§1) Analysis was conducted immediately after the eyelashes were collected. Using a high-performance microscope with computer-assisted eyelid thickness focus fixation and an image analysis software capable of measuring the number, thickness and length of eyelashes, the eyelashes were measured for the exact number, thickness and length thereof. Numeric data obtained by this method was averaged, and comparative analysis was conducted using prism statistical software.

[2] = tested on: eyelashes; experiment: In vivo evaluation related to eyelash growth (two weeks local administration); parameters: species or system mouse
Description: as §1

[3] = female mouse, 2 μl applied to the eyelashes once a day for one week, n is 6 for each group
[4] = female mouse, 2 μl applied to the eyelashes once a day for two weeks, n is 8 for each group

Question: What does the source list for `CCNC(=O)CCC/C=C\C[C@@H]1[C@@H](/C=C/[C@@H](O)CCc2ccccc2)[C@H](O)C[C@@H]1O` [bimatoprost]?
Answer: number of eyelashes [1, 3]: 37.8 eyelashes; number of eyelashes having a length of 1000 μm or more [1, 3]: 12.3 eyelashes; number of eyelashes having a thickness of 15 μm or more [1, 3]: 8.7 eyelashes; statistical significance of increase in number, thickness and length of eyelashes compared to the control group ([1]; one week administration, t-test): statistically significant increase in only one item of eyelash thickness; statistical significance of increase in number, thickness and length of eyelashes compared to the control group ([2]; administered for two weeks, t-test): statistically significant increase in only two items of number and thickness of eyelashes; number of eyelashes [2, 4]: 39.0 eyelashes; number of eyelashes having a length of 1000 μm or more [2, 4]: 9.5 eyelashes; number of eyelashes having a thickness of 15 μm or more [2, 4]: 9.5 eyelashes

From patent US9168212B2, “Composition for eyelash growth” (SK CHEMICALS CO., LTD., priority 2011, dated 2015)
